These results are taken from ChEMBL document CHEMBL3763048, “Design and discovery of 3-aryl-5-substituted-isoquinolin-1-ones as potent tankyrase inhibitors” (Medchemcomm, 2015).

Data set [1] can be described thus: Aqueous solubility of the compound in phosphate buffer at pH 7.4. Type of data set: physicochemical.
Data set [2] is described as follows: Intrinsic clearance in human liver microsomes assessed per mg of protein. Type of data set: ADME. As to conditions: read-out: CLH.
For the next data set, the system named is SW480. Kind of data set: Induction of cellular DNA damage PARylation in human SW480 cells at >100 uM by Western blot analysis. Type of data set: functional, cell-based. Background: Immunoblotting shows a protein as a band on a membrane.
Data set [3] in a line: Intrinsic clearance in mouse liver microsomes assessed per mg of protein. It counts as ADME. As to conditions: read-out: CLH. For orientation: Liver microsomes are a subcellular fraction often used to study metabolism.

Each structure is given as a SMILES string. Calls of active or inactive are those of the source. No cut-off for these calls is given here.

Broadly, the solubility is the concentration that dissolves in the medium under given conditions. A low value points to a poorly soluble substance. For the molecule `COc1cccc2c(=O)[nH]c(-c3ccc(CN(C)C)cc3)cc12`, in data set [1], the solubility was over 100 µM.

Consider `Cc1cccc2c(=O)[nH]c(-c3ccc(CN4CCC(N(C)C)CC4)cc3)cc12`, for which the microsomal CLint in data set [2] is 5 µL/min/mg; in data set [3], 10 µL/min/mg. In addition, in the data set on SW480, the outcome was Active. Further, the solubility in data set [1] was over 100 µM.

Turning to `CN(C)Cc1ccc(-c2cc3ccccc3c(=O)[nH]2)cc1`, the solubility in data set [1] was over 100 µM.
